“Also recorded” adds a separate entry of the source. Where two headings read alike, the source gives them in different places.
Key:
[1] = Cytotoxicity in Akata cells (CTG), concurrent with EBV assay; type: cell-based; details: human, Akata cells (without virus induction), Table 1
Procedure: (§1) Each experiment that evaluates the antiviral activity of compounds includes both positive and negative control compounds to ensure the performance of each assay. Concurrent assessment of cytotoxicity was also performed for each study in the same cell line and with the same compound exposure.
Assays for EBV were performed by reported methods.^37 Akata cells were induced to undergo a lytic infection with 50 μg/ml of a goat anti-human IgG antibody. Experimental compounds were diluted within plates. The cells were added and incubated for 72 h. Similar plates were initiated without virus induction/addition and used for measuring cytotoxicity by the addition of CTG. For all assays, the replication of the virus was assessed by the quantification of viral DNA. […] Compound concentrations sufficient to reduce genome copy number by 50% were calculated from experimental data as well as compound cytotoxicity.

[2] = test system: primary human MDM; assay: Toxicity to MDM: LDH assay and light microscopy; type: cell-based
Procedure: Light microscopy was used to image MDMs on day 7 of infection. […] Colorimetric LDH assays were also performed on culture supernatants from these same cells on day 4 of infection to assess cell death.
At the end of each experiment, cells were imaged by light microscopy. After aspirating off media, cells were washed with PBS, and lysates were harvested in extraction buffer containing 0.1% Formic acid, 50% ACN, 40% MeOH, 10% H2O.
Drug toxicity was analyzed using an LDH assay kit according to manufacturer's instructions (Abcam #ab65393, Toronto, Canada). Briefly, supernatants from duplicate plates per treatment condition were added to a 96-well plate. Each supernatant was run in triplicate. Provided assay buffer was added to culture supernatants after mixing with a substrate solution that turns orange upon lactate exposure. After incubation for 30-45 min, colorimetric signal was quantified an OD of 450 nm. LDH was a positive control as well as cells lysed with 10% lysis buffer in media representing the “high control” to which % cytotoxicity was measured. The reference sample was either control uninfected cells treated with DMSO or negative control HIV-infected cells treated with DMSO. Culture media alone was used as a technical negative control. This background signal that was subtracted from all test wells.

[3] = test system: EBV (Akata/Akata); assay: EBV assay: viral DNA quantification in induced Akata cells; type: cell-based, Epstein-Barr virus; details: for EC50: human gammaherpesvirus 4, Akata
Procedure: Akata cells were obtained from Louisiana State University, Baton Rouge, LA. The HCMV strain AD169 was obtained from the American Type Culture Collection (ATCC, Manassas, VA). Akata cells latently infected with EBV were obtained from Louisiana State University, Baton Rouge, LA.
as §1
Assays for EBV were performed by reported methods.^37 Akata cells were induced to undergo a lytic infection with 50 μg/ml of a goat anti-human IgG antibody. Experimental compounds were diluted within plates. The cells were added and incubated for 72 h. Similar plates were initiated without virus induction/addition and used for measuring cytotoxicity by the addition of CTG. For all assays, the replication of the virus was assessed by the quantification of viral DNA. For EBV, primers 5′-[…]-3′ and 5′-CAG TTC CTC GCCTTAGGTTG-3 amplified a fragment corresponding to coordinates 96802-97234 in EBV genome (AJ507799). Compound concentrations sufficient to reduce genome copy number by 50% were calculated from experimental data as well as compound cytotoxicity.

[4] = Cytotoxicity in HFF cells (CellTiter-Glo), concurrent with HCMV assay; type: cell-based; details: human
Procedure: Human foreskin fibroblast (HFF) cells prepared from human foreskin tissue were obtained from the University of Alabama at Birmingham tissue procurement facility with approval from its IRB. The tissue was incubated at 4° C. for 4 h in Clinical Medium consisting of minimum essential media (MEM) with Earl's salts supplemented with 10% fetal bovine serum (FBS) (Hyclone, Inc. Logan UT), L-glutamine, fungizone, and vancomycin. Tissue was then placed in phosphate buffered saline (PBS), minced, rinsed to remove the red blood cells, and resuspended in trypsin/EDTA solution. The tissue suspension was incubated at 37° C. and gently agitated to disperse the cells, which were collected by centrifugation. Cells were resuspended in 4 ml Clinical Medium and placed in a 25 cm^2 flask and incubated at 37° C. in a humidified CO2 incubator for 24 h. The media was then replaced with fresh Clinical Medium and the cell growth was monitored daily until a confluent monolayer had formed. The HFF cells were then expanded through serial passages in standard growth medium of MEM with Earl's salts supplemented with 10% FBS, L-glutamine, penicillin, and gentamycin. The cells were passaged routinely and used for assays at or below passage ^10.37,38
as §1
Assays were performed in monolayers as described.37 Cells were seeded in 384 well plates and incubated for 24 h to allow the formation of confluent monolayers. Dilutions of test drug were prepared directly in the plates and the monolayers infected at a predetermined MOI based on virus used. After incubation, cytopathology was determined by the addition of CellTiter-Glo (CTG) reagent. Concentrations of test compound sufficient to reduce CPE by 50% (EC50) or decrease cell viability by 50% (CC50) were interpolated using standard methods in Microsoft Excel. Toxicity was measured using CTG as above.

[5] = test system: HIVADA; assay: HIV p24 alphaLISA in infected monocyte derived macrophages; type: cell-based, Human Immunodeficiency Virus
Procedure: Primary human MDMs were cultured from peripheral blood mononuclear cells and pre-treated for 24 h with ddhC (100 μM), compound 8 (100 μM), compound 21 (100 μM), emtricitabine control (15 μM, 10 μM, 1 μM, 0.1 μM), or the drug vehicle, DMSO. MDM were then infected with HIVADA in the presence of these compounds and treated daily (with compound), while culture supernatants were collected to quantify levels of HIV p24, a viral capsid protein, on days 2-7 of infection.
Leukopaks from healthy donors were obtained from the New York Blood Center and processed by Ficoll gradient centrifugation to isolate peripheral blood mononuclear cells (PBMC). These PBMC were cultured adherently into monocyte derived macrophages (MDM), according to published protocols, on 60 mm dishes for 6 days with 10-20 ng/ml macrophage colony stimulating factor (M-CSF). MDM were pre-treated with ddhC, compound 8, compound 21, emtricitabine (Cat. No .: 10071), or DMSO vehicle at indicated concentrations for 24 hours (NIH AIDS Reagent Program, Bethesda, MD). Cells were left uninfected or infected for 24 h in the presence of one of the compounds listed above with 20 ng/mL HIVADA, a macrophage-tropic HIV strain originally derived from a person with HIV (NIH). Media was changed daily with the mentioned compounds added each time, and supernatants were collected on days 2, 3, 4, 5, 6, and 7 of infection. Each treatment condition was analyzed in duplicate plates per experiment.
Supernatant samples were analyzed for the viral capsid protein, HIV p24, by a sensitive p24 alphaLISA according to the manufacturer's protocol (Perkin-Elmer, Waltham, MA). Treatment conditions were analyzed in duplicate plates, and each supernatant was analyzed in duplicate on a 96-well alphaLISA plate. These were then fit to a sigmoid standard curve to extrapolate HIV p24 levels in pg/mL within the assay limits of detection.

Question: With `CC(C)C(=O)OCC1=C[C@@H](O)[C@H](n2ccc(N)nc2=O)O1` [Compound 8, 3′-Deoxy-3′,4′-didehydro-5′-O-isobutyroyl-cytidine] as the molecule, how does the CC50 at 72 h [1] read?
Answer: The CC50 at 72 h was over 50 µM.

Question: And the “LDH activity in HIV-infected MDMs relative to DMSO controls” value ([2]; 100 μM, day 4 of infection)?
Answer: The value was “nearly identical”.

Question: What about the “LDH activity relative to uninfected DMSO controls” value ([2]; 100 μM, uninfected or HIV-infected MDMs, day 4 of infection) of the same molecule?
Answer: Its value is “no significant difference”.

Question: What about the “toxicity to MDMs” value ([2]; 100 uM, visual inspection by light microscopy and colorimetric LDH assays) of the same molecule?
Answer: The value was “non-toxic”.

Question: What about the “activity against EBV” value ([3]; cell-based assay, highest concentration tested in primary assays 50 μM) of the same molecule?
Answer: Its value is “performed most favourably”.

Question: What about the EC50 ([3]; Akata/Akata, Table 1, read-out: EBV EC50) of the same molecule?
Answer: The EC50 was 7.6 µM.

Question: What about the EC50 ([3]; read-out: Result for compound (EC50/UM), EBV Akata/Akata, assay order Primary) of the same molecule?
Answer: Its EC50 is 7.59 µM.

Question: And the EC50 ([3]; read-out: EC50 against EBV)?
Answer: Its EC50 is 7.6 to 38.7 µM.

Question: What about the CC50 [4] of the same molecule?
Answer: The CC50 was over 50 µM.

Question: What about the “reduction of p24 levels” value ([5]; 10 μM, by day 6 of infection) of the same molecule?
Answer: Its value is about 50%.

Question: What about the “levels of HIV p24 viral capsid protein” value ([5]; 100 μM, infected MDM, days 2-7, compared with DMSO control) of the same molecule?
Answer: Its value is “significantly reduce; also recorded: significantly decreased”.

Question: And the “impact on HIV replication relative to the DMSO control” value ([5]; low doses: compound 8 compound 21 (0.1-1 μM) as printed)?
Answer: The value was “minimal impact”.

— patent US20240287123A1 (Victoria Link Limited, priority 2021, published 2024)
